Test results taken from paper PMC5241706, “Biochemical and Structural Characterization of Selective Allosteric Inhibitors of the Plasmodium falciparum Drug Target, Prolyl-tRNA-synthetase” (ACS Infectious Diseases, 2016).
Several values for one entry are separate records, joined by “and”; a condition that tells them apart may be missing. Equal entries are not always repeated.

What was measured:
PfProRS [1] = molecular target: T1, PfProRS (Plasmodium falciparum, UniProt Q8I5R7); assay: ATP consumption assay with proline or ATP varied (competition); type: biochemical; settings: from IC50 vs [ATP] fit
T1 construct: B2, AA7–746 (minus 6 amino acids, or 99% of the ORF); made in house; host or cells: E. coli BL21(DE3)R3 Rosetta Oxford
T1 sequence (Q8I5R7 7-746): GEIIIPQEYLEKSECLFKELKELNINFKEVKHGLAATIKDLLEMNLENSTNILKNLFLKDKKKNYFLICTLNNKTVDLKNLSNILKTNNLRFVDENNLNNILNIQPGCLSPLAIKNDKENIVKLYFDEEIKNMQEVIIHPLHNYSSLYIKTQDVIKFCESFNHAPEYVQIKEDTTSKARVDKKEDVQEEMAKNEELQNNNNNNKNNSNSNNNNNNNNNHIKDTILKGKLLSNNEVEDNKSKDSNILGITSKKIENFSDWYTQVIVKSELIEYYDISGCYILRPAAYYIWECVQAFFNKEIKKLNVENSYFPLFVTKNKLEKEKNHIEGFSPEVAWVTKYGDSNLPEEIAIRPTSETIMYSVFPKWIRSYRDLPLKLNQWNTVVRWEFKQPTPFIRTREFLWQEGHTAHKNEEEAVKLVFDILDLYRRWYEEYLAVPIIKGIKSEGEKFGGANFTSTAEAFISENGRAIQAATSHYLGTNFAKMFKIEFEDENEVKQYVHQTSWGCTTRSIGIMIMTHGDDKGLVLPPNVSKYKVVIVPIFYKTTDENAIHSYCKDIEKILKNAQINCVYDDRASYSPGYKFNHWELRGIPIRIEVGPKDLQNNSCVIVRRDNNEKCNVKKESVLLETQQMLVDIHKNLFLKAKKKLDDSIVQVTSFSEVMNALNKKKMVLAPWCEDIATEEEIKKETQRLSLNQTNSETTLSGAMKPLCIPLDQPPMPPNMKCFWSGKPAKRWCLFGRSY

PfProRS [2] = molecular target: T1, PfProRS; assay: biochemical; type: biochemical; settings: for IC50: read-out: Pf ProRS IC50; for PfProRS activity in words: SAR text to Table 1
[3] = test system: Plasmodium falciparum strain 3D7; assay: Plasmodium falciparum growth inhibition, SYBR green fluorescence; type: cell-based; settings: 3D7, growth inhibition, read-out: Pf (3D7) EC50
[4] = test system: isolated 3D7 trophozoites (pHi); assay: pH assay, BCECF-loaded isolated trophozoites; settings: TCMDC-124506 5 μM; KAE609 50 nM
PfProRS [5] = molecular target: T1, PfProRS; assay: aminoacylation assay ([3H]-L-proline incorporation into tRNA); type: biochemical
HsProRS = molecular target: T2, HsProRS (Homo sapiens, UniProt P07814); assay: luciferase ATP depletion assay, counter-screen; type: biochemical
T2 construct: made in house
T2 sequence (P07814 1007-1512 limits assumed): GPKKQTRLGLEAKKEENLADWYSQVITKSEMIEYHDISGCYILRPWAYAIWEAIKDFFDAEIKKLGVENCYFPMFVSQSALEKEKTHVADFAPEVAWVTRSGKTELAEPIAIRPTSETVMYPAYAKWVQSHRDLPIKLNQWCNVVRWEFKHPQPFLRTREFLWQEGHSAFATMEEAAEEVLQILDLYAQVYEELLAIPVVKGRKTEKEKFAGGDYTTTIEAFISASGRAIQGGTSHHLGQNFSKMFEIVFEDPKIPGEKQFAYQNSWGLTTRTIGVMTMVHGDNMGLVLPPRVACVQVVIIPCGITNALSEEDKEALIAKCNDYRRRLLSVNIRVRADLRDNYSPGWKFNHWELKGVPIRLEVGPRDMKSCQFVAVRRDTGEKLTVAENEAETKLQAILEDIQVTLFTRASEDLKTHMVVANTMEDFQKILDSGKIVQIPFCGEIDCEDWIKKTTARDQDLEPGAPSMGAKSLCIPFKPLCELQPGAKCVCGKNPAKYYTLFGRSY

PfProRS [6] = molecular target: T1, PfProRS; assay: luciferase ATP depletion assay, HTS format; type: biochemical
PfProRS [7] = molecular target: T1, PfProRS; type: binding
[8] = read-out: Percentage inhibition Pf ProRS

SMILES: Nc1ncnc2c1ncn2[C@@H]1O[C@H](COP(=O)(O)OP(=O)(O)OP(=O)(O)O)[C@@H](O)[C@H]1O [ATP]
- Km (PfProRS [1]): 6.51 ± 1.84 µM

SMILES: COc1ccc(NC(=O)Nc2c(-c3ccc(F)cc3)c(C(F)(F)F)nn2C)cc1 [Compound 5]
- IC50 (PfProRS [2]): > 50 µM
- EC50 [3]: > 50 µM

SMILES: Cn1nc(C(F)(F)F)c(-c2ccc(F)cc2)c1NC(=O)Nc1ccnc(N2CCOCC2)c1 [Compound 6]
- IC50 (PfProRS [2]): > 50 µM
- EC50 [3]: > 50 µM

SMILES: O=C(Nc1ccc(F)cc1)Nc1[nH]nc(C(F)(F)F)c1-c1ccc(F)cc1 [Compound 7]
- PfProRS activity in words (PfProRS [2]): inactive
- IC50 (PfProRS [2]): > 50 µM
- EC50 [3]: > 50 µM

SMILES: O=C(Nc1ccc(F)cc1)Nc1c(-c2ccc(F)cc2)c(C(F)(F)F)nn1CCO [Compound 8]
- IC50 (PfProRS [2]): > 50 µM
- EC50 [3]: > 50 µM

SMILES: NC(=O)Cn1nc(C(F)(F)F)c(-c2ccc(F)cc2)c1NC(=O)Nc1ccc(F)cc1 [Compound 9]
- IC50 (PfProRS [2]): > 50 µM
- EC50 [3]: > 50 µM

SMILES: Cn1nc(C(F)(F)F)cc1NC(=O)Nc1ccc(F)cc1 [Compound 10, 1-(4-fluorophenyl)-3-(1-methyl-3-(trifluoromethyl)-1H-pyrazol-5-yl)urea]
- PfProRS activity in words (PfProRS [2]): inactive
- IC50 (PfProRS [2]): > 50 µM
- EC50 [3]: 46 µM

SMILES: Cn1nc(C(F)(F)F)c(Br)c1NC(=O)Nc1ccc(F)cc1 [Compound 11, 1-[4-bromo-2-methyl-5-(trifluoromethyl)pyrazol-3-yl]-3-(4-fluorophenyl)urea]
- PfProRS activity in words (PfProRS [2]): inactive
- IC50 (PfProRS [2]): > 50 µM
- EC50 [3]: 16 µM

SMILES: Cn1nc(C(F)(F)F)c(-c2ccccc2CO)c1NC(=O)Nc1ccc(F)cc1 [Compound 13]
- drop in PfProRS potency versus hit compound (PfProRS [2]): 4 fold
- IC50 (PfProRS [2]): 20 µM
- EC50 [3]: 8 µM

SMILES: Cn1nc(C(F)(F)F)c(-c2cccc(CCO)c2)c1NC(=O)Nc1ccc(F)cc1 [Compound 15]
- IC50 (PfProRS [2]): 13 µM
- EC50 [3]: 4 µM

SMILES: Cn1nc(C(F)(F)F)c(-c2cccc(CNS(C)(=O)=O)c2)c1NC(=O)Nc1ccc(F)cc1 [Compound 16]
- PfProRS activity in words (PfProRS [2]): inactive
- IC50 (PfProRS [2]): > 50 µM
- EC50 [3]: 10 µM

SMILES: Cn1nc(C(F)(F)F)c(-c2cccc(C(F)(F)F)c2)c1NC(=O)Nc1ccc(F)cc1 [Compound 17]
- IC50 (PfProRS [2]): > 50 µM
- EC50 [3]: 0.9 µM

SMILES: Cn1ncc(-c2ccc(F)cc2)c1NC(=O)Nc1ccc(F)cc1 [Compound 18]
- IC50 (PfProRS [2]): > 50 µM
- EC50 [3]: 27 µM

SMILES: Cn1nc(CCO)c(-c2ccc(F)cc2)c1NC(=O)Nc1ccc(F)cc1 [Compound 19]
- IC50 (PfProRS [2]): 18 µM
- EC50 [3]: 20 µM

SMILES: Cn1nc(C(N)=O)c(-c2ccc(F)cc2)c1NC(=O)Nc1ccc(F)cc1 [Compound 20]
- IC50 (PfProRS [2]): 14 µM
- EC50 [3]: > 50 µM

SMILES: Cn1nc(CCC(N)=O)c(-c2ccc(F)cc2)c1NC(=O)Nc1ccc(F)cc1 [Compound 21]
- IC50 (PfProRS [2]): 8 µM
- EC50 [3]: > 50 µM

SMILES: Cn1nc(C#N)c(-c2ccc(F)cc2)c1NC(=O)Nc1ccc(F)cc1 [Compound 22]
- IC50 (PfProRS [2]): 5 µM
- EC50 [3]: 0.6 µM

SMILES: Cn1nc(CC#N)c(-c2ccc(F)cc2)c1NC(=O)Nc1ccc(F)cc1 [Compound 23]
- IC50 (PfProRS [2]): 6 µM
- EC50 [3]: 4 µM

SMILES: Cn1nc(CCC#N)c(-c2ccc(F)cc2)c1NC(=O)Nc1ccc(F)cc1 [Compound 24]
- IC50 (PfProRS [2]): 9 µM
- EC50 [3]: 6 µM

SMILES: CN(C)CCc1nn(C)c(NC(=O)Nc2ccc(F)cc2)c1-c1ccc(F)cc1 [Compound 25]
- IC50 (PfProRS [2]): 4 µM
- EC50 [3]: > 50 µM

SMILES: Cn1nc(CCN2CCOCC2)c(-c2ccc(F)cc2)c1NC(=O)Nc1ccc(F)cc1 [Compound 26]
- IC50 (PfProRS [2]): 3 µM
- EC50 [3]: 10 µM

SMILES: C[C@H]1Cc2c([nH]c3cc(Cl)c(F)cc23)[C@@]2(N1)C(=O)Nc1ccc(Cl)cc12 [KAE609, reference compound]
- effect on parasite cytosolic pH (pHi) [4]: caused an increase in pHi

SMILES: CC(C)(C)OC(=O)N1CCC[C@@H](O)[C@@H]1CC(=O)Cn1cnc2cc(Br)c(Cl)cc2c1=O [N-Boc-halofuginone]
- IC50 (PfProRS [5]; Hill slope = 1, Figure S2, read-out: IC50, [3H]-L-proline aminoacylation incorporation assay): > 3 µM
- inhibition of aminoacylation (PfProRS [5]; at the highest concentrations tested): < 20%

SMILES: O=C(CC1NCCCC1O)Cn1cnc2cc(Br)c(Cl)cc2c1=O (stereo not drawn) [halofuginone]
- IC50 (HsProRS; 75 nM ProRS, 60 μM proline, 6 μM ATP, 400 μg/mL yeast tRNA, 2 h 37 °C): 2 µM and 2.13 µM
- fold difference between PfProRS and HsProRS IC50 (HsProRS; HsProRS vs PfProRS): ≤ 8 fold
- inhibition at 0.02 µM (HsProRS; at 0.02 μM, read-out: Percentage inhibition Hs ProRS): 0.15%
- inhibition at 0.05 µM (HsProRS; at 0.05 μM, read-out: Percentage inhibition Hs ProRS): -0.14%
- inhibition at 0.1 µM (HsProRS; at 0.10 μM, read-out: Percentage inhibition Hs ProRS): 0.21%
- inhibition at 0.2 µM (HsProRS; at 0.20 μM, read-out: Percentage inhibition Hs ProRS): 1.95%
- inhibition at 0.39 µM (HsProRS; at 0.39 μM, read-out: Percentage inhibition Hs ProRS): 9.43%
- inhibition at 0.78 µM (HsProRS; at 0.78 μM, read-out: Percentage inhibition Hs ProRS): 24.7%
- inhibition at 1.56 µM (HsProRS; at 1.56 μM, read-out: Percentage inhibition Hs ProRS): 46.5%
- inhibition at 3.13 µM (HsProRS; at 3.13 μM, read-out: Percentage inhibition Hs ProRS): 64.1%
- inhibition at 6.25 µM (HsProRS; at 6.25 μM, read-out: Percentage inhibition Hs ProRS): 74.3%
- inhibition at 12.5 µM (HsProRS; at 12.50 μM, read-out: Percentage inhibition Hs ProRS): 85.7%
- inhibition at 25 µM (HsProRS; at 25.00 μM, read-out: Percentage inhibition Hs ProRS): 89.2%
- IC50 (PfProRS [6]; PfProRS IC50, 75 nM ProRS, 60 μM proline, 6 μM ATP, 400 μg/mL yeast tRNA, 2 h 37 °C): 0.28 µM
- IC50 (PfProRS [6]; PfProRS IC50, luciferase ATP depletion assay): 0.275 µM
- inhibition at 0.02 µM (PfProRS [6]; [8]): -0.05%
- inhibition at 0.05 µM (PfProRS [6]; [8]): 2.49%
- inhibition at 0.1 µM (PfProRS [6]; [8]): 10.8%
- inhibition at 0.2 µM (PfProRS [6]; [8]): 34.4%
- inhibition at 0.39 µM (PfProRS [6]; [8]): 69%
- inhibition at 0.78 µM (PfProRS [6]; [8]): 90%
- inhibition at 1.56 µM (PfProRS [6]; [8]): 98.9%
- inhibition at 3.13 µM (PfProRS [6]; [8]): 99.1%
- inhibition at 6.25 µM (PfProRS [6]; [8]): 95%
- inhibition at 12.5 µM (PfProRS [6]; [8]): 93.6%
- inhibition at 25 µM (PfProRS [6]; [8]): 93.9%
- change in thermal stability (PfProRS [7]; full-length recombinant protein B1): no increase in stability
- shift in stability (thermal melt) (PfProRS [7]; recombinant protein B2): 6 °
- IC50 (PfProRS [5]): 0.011 µM
